The values below come from patent US6984399B2 (Lek Pharmaceuticals d.d., priority 1999, dated 2006).

A short description of series [1]: dissolution of lovastatin samples of varying particle size in water (Table I). In kind it is physicochemical. The conditions noted are these: suspension in 0.1% Tween 80 diluted 100 times. The text has this: At first we have prepared three samples of lovastatin* with varying particle size and compared dissolution** of those samples in water (Table I).
Series [2] is described as follows: particle size and BET specific surface area of lovastatin crystals. The class given is physicochemical. The settings on record: for d(0.1) / d(0.5) / d(0.9): particle size; for d(0.9): 90% (volume) of particles below; for Spec. Pov.: specific surface area, BET method.
For series [3] the following is noted: room temperature; cited from earlier work.
The conditions of series [4]: oral, cited from earlier work.

`CC[C@H](C)C(=O)O[C@H]1C[C@@H](C)C=C2C=C[C@H](C)[C@H](CC[C@@H]3C[C@@H](O)CC(=O)O3)[C@H]21` [C, lovastatin]: the “concentration of dissolved lovastatin” value was 0 ng/mL in series [1] (time 0 min); 250 ng/mL in series [1] (time 1 min); 300 ng/mL in series [1] (time 3 min); 400 ng/mL in series [1] (time 5 min); 560 ng/mL in series [1] (time 10 min); 820 ng/mL in series [1] (time 30 min). Also, the “concentration of dissolved lovastatin” value in series [1] (time 50 min) is 940 ng/mL. Besides, the “d(0.1)” value in series [2] came out at 17 μm. Further, the “d(0.5)” value in series [2] is listed as 54 μm. For the same compound, in series [2], the “d(0.9)” value is 163 μm. The “Spec. Pov.” value in series [2] came out at 0.7 m^2/g.

With `CC[C@H](C)C(=O)O[C@H]1C[C@@H](C)C=C2C=C[C@H](C)[C@H](CC[C@@H]3C[C@@H](O)CC(=O)O3)[C@H]21` [A, lovastatin], the “concentration of dissolved lovastatin” value in series [1] (time 0 min) was found to be 0 ng/mL; in series [1] (time 1 min), 650 ng/mL; in series [1] (time 3 min), 770 ng/mL; in series [1] (time 5 min), 780 ng/mL; in series [1] (time 10 min), 810 ng/mL; in series [1] (time 30 min), 880 ng/mL. Moreover, the “concentration of dissolved lovastatin” value in series [1] (time 50 min) was determined as 900 ng/mL. In addition, the “d(0.1)” value in series [2] was 1.6 μm. Further, the “d(0.5)” value in series [2] is given as 6 μm. Besides, the “d(0.9)” value in series [2] is 22 μm. Further, in series [2], the “Spec. Pov.” value is 3.3 m^2/g.

For the compound `CC[C@H](C)C(=O)O[C@H]1C[C@@H](C)C=C2C=C[C@H](C)[C@H](CC[C@@H]3C[C@@H](O)CC(=O)O3)[C@H]21` [Example 5, lovastatin], in series [2], the “d(0.9)” value is listed as 77 μm and the “Spec. Pov.” value came to 1.3 m^2/g.

As for `CC[C@H](C)C(=O)O[C@H]1C[C@@H](C)C=C2C=C[C@H](C)[C@H](CC[C@@H]3C[C@@H](O)CC(=O)O3)[C@H]21` [B, lovastatin], the “concentration of dissolved lovastatin” value in series [1] (time 0 min) turned out to be 0 ng/mL; in series [1] (time 1 min), 500 ng/mL; in series [1] (time 3 min) it was 680 ng/mL; in series [1] (time 5 min), 710 ng/mL; in series [1] (time 10 min), 780 ng/mL; in series [1] (time 30 min), 870 ng/mL. Further, in series [1] (time 50 min), the “concentration of dissolved lovastatin” value is 950 ng/mL. Moreover, the “d(0.1)” value in series [2] worked out at 1.4 μm. The “d(0.5)” value in series [2] amounted to 7.9 μm. Moreover, in series [2], the “d(0.9)” value is recorded as 31 μm. Besides, the “Spec. Pov.” value in series [2] was found to be 2.2 m^2/g.

Turning to `CC[C@H](C)C(=O)O[C@H]1C[C@@H](C)C=C2C=C[C@H](C)[C@H](CC[C@@H]3C[C@@H](O)CC(=O)O3)[C@H]21` [Example 6, lovastatin], the “d(0.9)” value in series [2] is 22 μm.

Regarding `CC[C@H](C)C(=O)O[C@H]1C[C@@H](C)C=C2C=C[C@H](C)[C@H](CC[C@@H]3C[C@@H](O)CC(=O)O3)[C@H]21` [Example 4, lovastatin], in series [2], the “d(0.9)” value worked out at 163 μm.

`CC[C@H](C)C(=O)O[C@H]1C[C@@H](C)C=C2C=C[C@H](C)[C@H](CC[C@@H]3C[C@@H](O)CC(=O)O3)[C@H]21` [lovastatin]: the “volume of water required to dissolve 20 mg” value in series [3] is “about 15 litres”. Moreover, the “time to peak concentration in blood of active form” value in series [4] (post-dose) was 2.8 h. Moreover, the “share of total dose that crosses the intestinal membrane” value in series [4] is on record as 31%.
